Laboratory results: US8410165B2, “Aldehyde conjugated flavonoid preparations” (Agency for Science, Technology and Research, priority 2005, dated 2013)

Assays:
Type in all cases: biochemical
[1] = Diphenyl-picryl-hydrazyl (DPPH) scavenging activity; settings: concentration needed to scavenge DPPH by 50%; EGCG moiety concentration for EGCG-containing samples, n = 3
Method: Diphenyl-picryl-hydrazyl scavenging activity: Different amounts of a sample were mixed with the chemically stable free radical 1,1-diphenyl-2-picryl-hydrazyl (DPPH) solution and absorbance at 519 nm was continuously recorded for 30 min at 25° C. using a UV-visible spectrophotometer (JASCO V-510 UV/VIS/NIR spectrometer, Japan). All analyses were run in triplicate and the results were averaged.
Diphenyl-picryl-hydrazyl scavenging activity and Superoxide anion scavenging activity: The 1,1-diphenyl-2-picryl-hydrazyl radical (DPPH) assay, which measures hydrogen atom donating activity, provides an evaluation of antioxidant activity due to free radical scavenging. DPPH, a purple-coloured stable free radical, is reduced into the yellow-coloured diphenylpicry hydrazine, as the radical is scavenged by antioxidants through donation of hydrogen. […] The DPPH scavenging activity of samples was expressed by IC50 (the concentration needed to scavenge DPPH by 50%), as shown in Table 4. […] These activities were also much higher than those of commercial antioxidants, vitamin C and dibutylhydroxytoluen (BHT).

[2] = Superoxide anion scavenging activity (xanthine/XO, NBT reduction method); settings: concentration needed to scavenge superoxide anion by 50%; EGCG moiety concentration for EGCG-containing samples, n = 3; read-out: Superoxide radical scavenging activity IC50
Method: Superoxide anion scavenging activity: Superoxide anion was generated using xanthine and xanthine oxidase (XO), and measured by the nitroblue tetrazolium (NBT) reduction method. A test sample was mixed in a buffer solution (pH 7.0) containing xanthine and NBT at 25° C. Measurement began with the addition of XO. […] All analyses were run in triplicate and the results were averaged. Superoxide scavenging activity was calculated according to the following formula: […] A mixture of xanthine and XO generates superoxide anion, which reduces nitroblue tetrazolium (NBT) to give the blue chromogen formazan and increases UV absorbance at 560 nm. Compounds capable of scavenging superoxide anion, such as superoxide dismutase (SOD), inhibit NBT reduction. […] Since compounds capable of scavenging superoxide anion can also affect NBT reduction, samples were investigated for their effects on these processes. […] Evaluation of scavenging activity against DPPH and superoxide anion provided direct evidence of the free radical scavenging potential of those compounds.

[3] = biological target: T1, Xanthine oxidase (XO) (Bos taurus, UniProt P80457); experiment: Xanthine oxidase inhibitory activity (uric acid formation at 295 nm); settings: for XO inhibition activity: 10 μM of samples
T1 construct: purchased Sigma-Aldrich
T1 sequence (P80457 2-1332 limits assumed): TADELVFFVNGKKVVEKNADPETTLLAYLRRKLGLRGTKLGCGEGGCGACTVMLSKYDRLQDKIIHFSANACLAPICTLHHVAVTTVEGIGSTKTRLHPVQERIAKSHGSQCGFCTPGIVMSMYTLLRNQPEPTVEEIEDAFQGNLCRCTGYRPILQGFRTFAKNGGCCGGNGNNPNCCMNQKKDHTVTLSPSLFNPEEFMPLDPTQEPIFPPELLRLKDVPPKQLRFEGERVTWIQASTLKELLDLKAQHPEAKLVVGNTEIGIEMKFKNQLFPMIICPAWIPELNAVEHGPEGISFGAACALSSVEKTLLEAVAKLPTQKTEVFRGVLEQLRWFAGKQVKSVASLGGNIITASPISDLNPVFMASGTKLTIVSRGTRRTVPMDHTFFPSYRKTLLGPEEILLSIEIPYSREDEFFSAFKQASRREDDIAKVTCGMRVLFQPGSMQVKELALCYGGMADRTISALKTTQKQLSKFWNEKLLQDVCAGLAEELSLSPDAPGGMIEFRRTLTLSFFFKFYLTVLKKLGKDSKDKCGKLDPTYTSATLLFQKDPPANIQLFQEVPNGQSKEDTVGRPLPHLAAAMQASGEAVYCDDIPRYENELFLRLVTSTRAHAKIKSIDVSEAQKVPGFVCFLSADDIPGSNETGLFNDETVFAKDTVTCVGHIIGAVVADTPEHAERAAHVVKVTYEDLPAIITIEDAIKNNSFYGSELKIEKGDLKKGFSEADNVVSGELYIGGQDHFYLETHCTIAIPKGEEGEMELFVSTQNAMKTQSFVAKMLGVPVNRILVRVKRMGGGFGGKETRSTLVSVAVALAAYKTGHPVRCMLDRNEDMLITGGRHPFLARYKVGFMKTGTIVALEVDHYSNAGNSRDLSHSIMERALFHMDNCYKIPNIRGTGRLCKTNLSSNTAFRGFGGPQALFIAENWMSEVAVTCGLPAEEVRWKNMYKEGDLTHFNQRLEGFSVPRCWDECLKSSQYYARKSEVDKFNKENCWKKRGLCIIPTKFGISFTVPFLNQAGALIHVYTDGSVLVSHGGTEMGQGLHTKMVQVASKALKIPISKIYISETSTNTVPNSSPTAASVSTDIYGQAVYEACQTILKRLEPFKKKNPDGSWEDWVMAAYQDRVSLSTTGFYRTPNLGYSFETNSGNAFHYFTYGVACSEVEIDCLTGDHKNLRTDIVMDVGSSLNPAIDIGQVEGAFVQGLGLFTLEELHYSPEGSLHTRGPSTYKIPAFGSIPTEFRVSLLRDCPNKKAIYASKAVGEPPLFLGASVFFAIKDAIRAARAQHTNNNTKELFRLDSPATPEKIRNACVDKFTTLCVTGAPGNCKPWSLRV
Method: Xanthine oxidase inhibitory activity: The activity of XO was measured spectrophotometrically by monitoring the formation of uric acid at 295 nm for 30 min using a UV-visible spectrometer. The assay was carried out under the same conditions as the superoxide anion assay, and the percentage activity was calculated.

[4] = biological target: Urokinase (uPA) (Homo sapiens, UniProt P00749); experiment: uPA inhibitory activity (SPECTROZYME UK); settings: over a range of tested concentrations, EGCG-unit concentration (FIG. 8)
Method: uPA inhibitory activity: Various amounts of a sample were mixed with uPA in a buffer solution, and incubated for 15 min at 37° C. The mixture solution was added with SPECTROZYME™ and absorbance at 405 nm was recorded for 10 min using a microplate reader.

[5] = biological target: T2, Catalase from bovine liver (Bos taurus, UniProt P00432); experiment: Catalase activity upon complexation with OEGCG and recovery with Triton X-100
T2 construct: Catalase from bovine liver, Sigma Chemical; purchased Sigma Chemical; host or cells: bovine liver
T2 sequence (P00432 2-527 limits assumed): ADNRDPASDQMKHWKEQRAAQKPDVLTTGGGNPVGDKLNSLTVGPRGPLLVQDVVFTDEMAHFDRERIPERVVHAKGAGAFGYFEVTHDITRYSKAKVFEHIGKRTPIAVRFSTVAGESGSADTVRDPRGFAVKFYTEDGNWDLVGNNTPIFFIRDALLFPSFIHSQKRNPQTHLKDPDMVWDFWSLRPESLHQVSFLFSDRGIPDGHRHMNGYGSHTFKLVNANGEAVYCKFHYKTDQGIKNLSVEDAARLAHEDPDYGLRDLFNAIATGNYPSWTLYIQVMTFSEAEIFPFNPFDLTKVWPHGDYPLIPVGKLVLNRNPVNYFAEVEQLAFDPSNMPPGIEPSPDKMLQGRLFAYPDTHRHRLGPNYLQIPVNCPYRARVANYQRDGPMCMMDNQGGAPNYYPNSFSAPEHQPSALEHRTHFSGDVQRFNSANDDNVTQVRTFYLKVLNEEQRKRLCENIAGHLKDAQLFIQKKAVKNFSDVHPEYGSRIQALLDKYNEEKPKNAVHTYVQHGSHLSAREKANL
Method: Catalase from bovine liver, Sigma Chemical. Catalase activity was measured by the disappearance of H2O2, followed at 240 nm in a UV-Vis spectrophotometer over a period of 200s. […] The reaction was started by adding 0.507 M H2O2 and mixing for 25 s.
(§1) Activity was measured according to the specified method for each protein.
(§2) Activity for all proteins is calculated with the following equation:
(§3) [formula] where ΔAbssample is the change in absorbance over time with the test compound and ΔAbscontrol is the change in absorbance over time without the test compound.

[6] = biological target: T3, α-Amylase from Apergillus oryzae (Aspergillus oryzae, UniProt P0C1B3); experiment: α-Amylase activity upon complexation with OEGCG and recovery with Triton X-100
T3 construct: α-Amylase from Apergillus oryzae, Fluka; purchased Fluka; host or cells: Aspergillus oryzae
Method: α-Amylase from Apergillus oryzae, Fluka. Amylase activity was assayed with an activity kit from Molecular Probes (E-11954) using a fluorescence spectrophotometer with excitation wavelength at 505 nm and emission wavelength at 512 nm. […] Fluorescence was monitored over a period of 3 minutes.
as §1, §2, §3

[7] = biological target: T4, Xanthine Oxidase from buttermilk (Bos taurus, UniProt P80457); experiment: Xanthine oxidase activity upon complexation with OEGCG and recovery with Triton X-100; settings: highest OEGCG concentration
T4 construct: Xanthine Oxidase from buttermilk, Wako Chemical; purchased Wako Chemical; host or cells: buttermilk
T4 sequence (P80457 whole entry): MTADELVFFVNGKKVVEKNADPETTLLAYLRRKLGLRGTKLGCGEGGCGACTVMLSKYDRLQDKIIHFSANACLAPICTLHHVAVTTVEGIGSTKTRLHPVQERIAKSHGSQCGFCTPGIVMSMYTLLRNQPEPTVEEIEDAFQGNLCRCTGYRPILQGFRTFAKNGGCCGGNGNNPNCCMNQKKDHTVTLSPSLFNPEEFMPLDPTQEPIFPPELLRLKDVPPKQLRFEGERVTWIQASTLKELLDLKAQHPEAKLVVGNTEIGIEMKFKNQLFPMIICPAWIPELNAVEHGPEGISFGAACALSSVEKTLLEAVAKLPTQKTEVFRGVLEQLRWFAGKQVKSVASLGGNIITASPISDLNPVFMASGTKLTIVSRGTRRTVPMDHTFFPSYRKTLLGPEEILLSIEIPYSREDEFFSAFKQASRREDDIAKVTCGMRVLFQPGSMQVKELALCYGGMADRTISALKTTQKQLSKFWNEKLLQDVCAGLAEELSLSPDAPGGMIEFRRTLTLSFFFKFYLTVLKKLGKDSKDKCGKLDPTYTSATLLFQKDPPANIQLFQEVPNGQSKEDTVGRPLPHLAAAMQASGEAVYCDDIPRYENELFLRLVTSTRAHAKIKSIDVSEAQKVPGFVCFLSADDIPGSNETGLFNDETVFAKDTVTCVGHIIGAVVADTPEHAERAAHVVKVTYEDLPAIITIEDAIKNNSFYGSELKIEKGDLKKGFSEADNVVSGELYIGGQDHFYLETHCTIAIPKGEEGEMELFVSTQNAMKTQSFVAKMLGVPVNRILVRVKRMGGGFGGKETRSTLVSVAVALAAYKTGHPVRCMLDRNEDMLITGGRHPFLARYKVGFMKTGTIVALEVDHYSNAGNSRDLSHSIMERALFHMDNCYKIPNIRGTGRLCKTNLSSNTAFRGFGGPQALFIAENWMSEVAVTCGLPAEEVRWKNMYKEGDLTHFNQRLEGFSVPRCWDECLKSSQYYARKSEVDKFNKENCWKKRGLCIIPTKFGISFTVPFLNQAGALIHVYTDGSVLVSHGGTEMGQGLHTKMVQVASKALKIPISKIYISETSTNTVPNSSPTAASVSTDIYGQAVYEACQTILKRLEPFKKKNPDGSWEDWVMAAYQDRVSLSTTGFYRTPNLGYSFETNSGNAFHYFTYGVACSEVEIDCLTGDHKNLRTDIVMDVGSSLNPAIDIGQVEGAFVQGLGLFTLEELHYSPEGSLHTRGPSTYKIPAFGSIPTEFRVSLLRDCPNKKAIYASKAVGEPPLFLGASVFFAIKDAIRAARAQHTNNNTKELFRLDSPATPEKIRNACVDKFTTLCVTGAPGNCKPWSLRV
Method: XO activity was measured by determining uric acid production in a UV-vis spectrophotometer at 295 nm. The increase in absorbance due to the conversion of xanthine to uric acid was followed for 3 minutes. […] Activity was measured according to the specified method for each protein. Activity for all proteins is calculated with the following equation: [formula] where ΔAbssample is the change in absorbance over time with the test compound and ΔAbscontrol is the change in absorbance over time without the test compound.

[8] = biological target: T5, Lysozyme from egg white (Gallus gallus, UniProt P00698); experiment: Lysozyme activity upon complexation with OEGCG and recovery with Triton X-100
T5 construct: Lysozyme from egg white, Sigma Chemical; purchased Sigma Chemical; host or cells: egg white
T5 sequence (P00698 19-147): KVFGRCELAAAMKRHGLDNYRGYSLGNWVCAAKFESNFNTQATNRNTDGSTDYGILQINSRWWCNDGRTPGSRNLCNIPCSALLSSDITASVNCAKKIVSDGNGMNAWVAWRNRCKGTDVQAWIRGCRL
Method: Lysozyme from egg white, Sigma Chemical. Activity of lysozyme was determined spectrophotometically at 450 nm by the decrease in turbidity over time due to the cleavage of glucosidic linkages of Micrococcus lysodeikticus. […] To start the reaction, 0.25 mg/mL of Micrococcus lysodeikticus was added to the solution.
as §1, §2, §3

[9] = ABTS radical scavenging activity; settings: dissociation (FIG. 27)
Method: Radical scavenging activity: ABTS^.+ was prepared by mixing a 7 mM ABTS stock solution with 2.45 mM potassium persulfate ((1/1, v/v). The decolorization reaction was initiated by adding ABTS^.+ to samples in a phosphate buffer and immediately measured at 734 nm using a UV-Vis spectrophotometer (Hitachi, Japan).

[10] = addition of TX-100 after complexation with OEGCG

Row | Compound | IC50 [1] | IC50 [2] | uPA inhibition activity [4] | XO inhibition activity [3] | other results
1 | Cc1cc(C(C)(C)C)c(O)c(C(C)(C)C)c1 [BHT, dibutylhydroxytoluen, reference compound] | > 250 µM | > 250 µM | – | – | –
2 | O=C1O[C@H]([C@@H](O)CO)C(O)=C1O [Vitamin C, reference compound] | 44.7 ± 0.4 µM | 30.3 ± 0.3 µM | – | – | –
3 | Oc1ncnc2[nH]ncc12 [allopurinol, reference compound] | – | – | – | – | inhibition at 10 µM ([3]; read-out: XO inhibition activity): 22.6%
4 | (−)-Epigallocatechin gallate [EGCG, reference compound] | 7.3 ± 0.6 µM | 2.9 ± 0.3 µM | very low uPA inhibition activity | 1.2% | XO inhibition ([3]; over the range of concentrations tested): less than 5%
5 | PEG-epigallocatechin gallate conjugate [PEG-EGCG] | 6.2 ± 0.3 µM | 0.9 ± 0.1 µM | higher inhibition activities | 30.7% | –
6 | PEG-oligomeric epigallocatechin gallate [PEG-OEGCG] | 3.8 ± 0.8 µM | 0.4 ± 0.1 µM | higher inhibition activities | 100% | –
7 | oligomeric epigallocatechin gallate [OEGCG] | 4.9 ± 0.5 µM | 1.1 ± 0.2 µM | higher inhibition activities | 89.3% | further decrease of catalase activity ([5]; five fold increase in OEGCG concentration beyond OEGCG to protein ratio of 1): about 6%; inhibition of catalase ([5]; highest OEGCG to protein ratio): 30%; maximum inhibition of α-amylase [6]: about 94%; initial α-amylase activity inhibition ([6]; OEGCG below a ratio of one): 70%; α-amylase activity restored, % of the initial protein activity [6, 10]: approximately 100%; decrease in α-amylase activity ([6]; five fold increase in OEGCG concentration from a ratio of 1 to 5): 20%; suppression of total XO activity [7]: 75%; inhibition of lysozyme ([8]; above an OEGCG ratio of 2): All activity was suppressed; lysozyme activity restored, % of the initial protein activity [8, 10]: approximately 100%; ABTS radical scavenging activity upon complexation with proteins and dissociation [9]: suppressed by complexation with proteins was restored upon dissociation
